The conditions of the series: aqueous solution.

Read-outs that look alike come from different tables or passages of the source.

Data on one compound can be found in patent US20190240337A1, “EPINEPHRINE FORMULATIONS FOR MEDICINAL PRODUCTS” (priority 2013, published 2019).

Description: In addition, an equilibrium constant of inclusion complex between epinephrine and sulfobutyl ether β-cyclodextrin (SBE-CD) in aqueous solution was determined using a spectroscopy technique, i.e., UV spectrophotometer as shown in FIG. 1. The equilibrium constant (K) between epinephrine and SBE-CD was determined by increasing the molar concentration ratio of SBD-CD to epinephrine in solution and measuring the spectral shift (ΔA) as shown FIG. 2 at pH 3.5. The K value was derived from the slope and intercept of a linear relationship from a plot between [Epi][SBD-CD]/ΔA and [SBD-CD] according to the Hildebrand and Benesi equation as shown in FIG. 2 (Rong Liu, Editor, Water-Insoluble Drug Formulation, Interpharm Press, 2000; and F. Cramer et. al., The Formation of Inclusion Compounds of a-Cyclodextrin in Aqueous Solutions, J. Am. Chem. Soc., 89, 14-20, 1967, the disclosures of which are incorporated herein by reference in their entireties).

`CNCC(O)c1ccc(O)c(O)c1` (single isomer, unassigned; (-)) [epinephrine, (−)-3,4-Dihydroxy-α-[(methylamino)methyl]benzyl alcohol]: the “equilibrium constant (K) between epinephrine and SBE-CD” value (pH 3.5, room temperature) came out at 488 M⁻¹; the “equilibrium constant (K) between epinephrine and SBE-CD” value (pH 5.5) stood at 111 M⁻¹.
